From patent US9273341B2, “Methods for treatment of bacterial infections” (THE JOHNS HOPKINS UNVIERSITY, priority 2010, dated 2016)
Converted amounts (≈) assume the structure as drawn.

Legend:
[1] = system: wild-type M. tuberculosis; experiment: microbe, parasite or virus in culture; type: cell-based; conditions: Mycobacterium tuberculosis
[2] = system: wild-type M. tuberculosis; parameters: species or system Balb/C mice; conditions: mouse, in vivo

SMILES | MIC [1] [µg/mL] | bacterial burden (lung CFU) under treatment [2]
N[C@@H]1CON=C1O [D-cycloserine] | 5 (≈ 49 µM) | 
NNC(=O)c1ccncc1 [isoniazid] | 0.03 (≈ 0.219 µM) | similarly effective
